Literature values, collected in US20260000626A1, “POLYMERIC NANOPARTICLES FOR LONG ACTING DELIVERY OF A PEPTIDE AND METHODS OF MAKING AND USING THEREOF” (Brown University, priority 2022, published 2026).

How the values were obtained:
GLP-1 receptor [1] = target: T1, GLP-1 receptor (Homo sapiens, UniProt P43220); conditions: vs intact GLP-1
GLP-1 receptor [2] = target: T1, GLP-1 receptor; conditions: negligible agonistic activity

T1 sequence (P43220 24-463, species assumed): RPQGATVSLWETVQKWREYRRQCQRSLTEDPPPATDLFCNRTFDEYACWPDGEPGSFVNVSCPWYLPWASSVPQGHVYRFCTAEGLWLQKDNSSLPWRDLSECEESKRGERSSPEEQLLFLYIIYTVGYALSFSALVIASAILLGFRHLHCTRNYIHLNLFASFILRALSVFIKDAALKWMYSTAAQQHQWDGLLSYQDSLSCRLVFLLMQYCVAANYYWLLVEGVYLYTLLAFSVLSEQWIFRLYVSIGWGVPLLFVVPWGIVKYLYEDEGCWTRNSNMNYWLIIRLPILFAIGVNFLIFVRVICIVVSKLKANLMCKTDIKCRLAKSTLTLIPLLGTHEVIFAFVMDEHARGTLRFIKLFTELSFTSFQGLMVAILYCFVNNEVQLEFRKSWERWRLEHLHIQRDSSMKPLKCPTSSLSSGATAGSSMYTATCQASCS

Substance: GLP-1(9-36)-NH2
- lower binding affinity compared to the intact peptide (GLP-1 receptor [1]): 100 fold
- decrease in agonistic activity (GLP-1 receptor [2]): > 10000 fold
